# Assay results taken from US8748598B2, “Analogs of 3-O-acetyl-11-keto-beta-boswellic acid” (Laila Nutraceuticals, priority 2004, dated 2014).
# Like-named read-outs stand apart in the source and are kept apart here.
# Tests used:
# MDA-MB-231 = assay: MTT cell proliferation assay, MDA-MB-231; assay type: cell-based, human; conditions: for inhibition at 10 µg/mL / IC50: Homo sapiens, MDA-MB-231
# Protocol: (§1) MTT [3-(4,5-dimethylthiazol-2-yl)-2,5-diphenyltetrazolium bromide] incorporation based cell proliferation assay was performed as described previously (Reference). The cytotoxic efficacy of some analogs was evaluated in different cell lines by MTT cell proliferation assay kit (Roche Applied Sciences, Germany). The assay was carried out according to the instruction provided by the vendor. Briefly, in brief, equal numbers of cells was plated in 96-well flat-bottomed plates in 100 μl of medium and were exposed to different analogs selected from 1 to 63 at various concentrations up to 10 μg/ml for a period of three days. Vehicle control culture wells received only a maximum of 0.5% DMSO. Thereafter, 0.5 mg/ml of MTT reagent was added to each well and the microplate was incubated further for 4 h at 37° C. in presence of 5% CO2. Finally, the cells were solubilized by adding solubilizing solution and allowed to incubate at 37° C. overnight. After complete solubilization of the formazan crystals the absorbance was read at 540 nm in a microplate reader (BioRad, USA). The results (mean OD±SD) obtained from quadruplicate wells were used in calculation to determine the inhibition of cell proliferation (50% of inhibitory concentration, IC50) of the test compounds.
# (§2) The cytotoxic properties of some analogs were evaluated by MTT incorporation assay. The methodology of the assay procedure was the same as mentioned in example 41.
# MCF-7 = assay: MTT cell proliferation assay, MCF-7; assay type: cell-based, human; conditions: for inhibition at 10 µg/mL / IC50: Homo sapiens, MCF7
# Protocol: as §1, §2
# potato 5-lipoxygenase = assay: 5-Lipoxygenase enzyme inhibitory activity; assay type: biochemical
# Protocol: 5-Lipoxygenase enzyme inhibitory activity was measured using the method of Schewe et al. (Adv Enzymol, Vol 58, 191-272, 1986), modified by Reddanna et. al., (Methods of Enzymology, Vol 187, 268-277, 1990). The assay mixture contained 80 μM linoleic acid and sufficient amount of potato 5-lipoxygenase in 50 mM phosphate buffer (pH 6.3). The reaction was initiated by the addition of enzyme buffer mix to linoleic acid and the enzyme activity was monitored as the increase in absorbance at 234 nm. The reaction was monitored for 120 sec and the inhibitory potential of the test substances (29, 31, 33, 34, 35, 36, 39, 40, 43, 44, 46, 47, 48, 49, 50, 54, 57, 59, 62 & 63) was measured by incubating various concentrations of test substances two minutes before the addition of linoleic acid. All assays were performed three times. Percentage inhibition was calculated by comparing the slope of the curve obtained for test substances with that of the control.
# A549 = assay: MTT cell proliferation assay, A549; assay type: cell-based, human; conditions: Homo sapiens, A549; Table 2; 10 ug/ml
# Protocol: as §1
# [1] = Table 4, 10 μg/ml, read-out: Percentage Inhibition of cell proliferation MDA-MB-231
# [2] = Table 4, 10 μg/ml, read-out: Percentage Inhibition of cell proliferation MCF-7
# [3] = Table 2, 10 ug/ml, read-out: Inhibition of cell proliferation MDA-MB-231, % at 10 ug/ml
# [4] = Table 2, 10 ug/ml, read-out: Inhibition of cell proliferation MCF-7, % at 10 ug/ml
Structure (SMILES),inhibition at 10 µg/mL (MDA-MB-231; [1]),inhibition at 10 µg/mL (MCF-7; [2]),% inhibition at 10 μg/ml (potato 5-lipoxygenase),% inhibition at 25 μg/ml (potato 5-lipoxygenase),further results
CC1CCC2(C)CCC3(C)C(=CC(=O)C4C5(C)CCC(OC(=O)CCC(=O)O)C(C)(C(=O)O)C5CCC43C)C2C1C (stereo not shown) [Analog 4],–,–,–,–,"Percentage Inhibition of cell proliferation MDA-MB-231 (MDA-MB-231; Table 4, 10 μg/ml): 40.7% at 10 μg/ml; Percentage Inhibition of cell proliferation MCF-7 (MCF-7; Table 4, 10 μg/ml): 26.6% at 10 μg/ml"
COC(=O)[C@]1(C)C2CC[C@]3(C)C(C(=O)C=C4C5[C@@H](C)[C@H](C)CC[C@]5(C)CC[C@]43C)[C@@]2(C)CC[C@H]1S (stereo partly shown) [Analog 15],37.5%,21.6%,–,–,–
CC(=O)OC1CC[C@@]2(C)C(CC[C@]3(C)C2C(=O)C=C2C4[C@@H](C)[C@H](C)CC[C@]4(C)CC[C@]23C)[C@@]1(C)C(=O)OCCN(C)C (stereo partly shown) [Analog 18],–,–,–,–,"Percentage Inhibition of cell proliferation MCF-7 (MCF-7; Table 4, 10 μg/ml): 5.97 at 10 μg/ml %"
CCCCNC(=O)[C@]1(C)C2CC[C@]3(C)C(C(=O)C=C4C5[C@@H](C)[C@H](C)CC[C@]5(C)CC[C@]43C)[C@@]2(C)CC[C@H]1OC(C)=O (stereo partly shown) [Analog 29],–,–,33.29%,–,"Inhibition of cell proliferation MDA-MB-231, % at 10 ug/ml (MDA-MB-231; Table 2, 10 ug/ml): 36% at 10; Percentage Inhibition of cell proliferation MDA-MB-231 (MDA-MB-231; Table 4, 10 μg/ml): 36% at 10 μg/ml; Inhibition of cell proliferation MCF-7, % at 10 ug/ml (MCF-7; Table 2, 10 ug/ml): 38.3% at; Percentage Inhibition of cell proliferation MCF-7 (MCF-7; Table 4, 10 μg/ml): 38.3 at 10 μg/ml %"
CC(=O)O[C@@H]1CC[C@@]2(C)C(CC[C@]3(C)C2C(=O)C=C2C4[C@@H](C)[C@H](C)CC[C@]4(C)CC[C@]23C)[C@@]1(C)C(=O)NC(C)C (stereo partly shown) [Analog 30],35%,46%,–,–,inhibition at 10 µg/mL (MDA-MB-231; [3]): 35%; inhibition at 10 µg/mL (MCF-7; [4]): 46%; inhibition at 10 µg/mL (A549): 18%
COC(=O)CNC(=O)[C@]1(C)C2CC[C@]3(C)C(C(=O)C=C4C5[C@@H](C)[C@H](C)CC[C@]5(C)CC[C@]43C)[C@@]2(C)CC[C@H]1OC(C)=O (stereo partly shown) [Analog 32],41%,14%,–,–,inhibition at 10 µg/mL (MDA-MB-231; [3]): 41%; inhibition at 10 µg/mL (MCF-7; [4]): 14%; inhibition at 10 µg/mL (A549): 10%
CC(=O)O[C@@H]1CC[C@@]2(C)C(CC[C@]3(C)C2C(=O)C=C2C4[C@@H](C)[C@H](C)CC[C@]4(C)CC[C@]23C)[C@@]1(C)C(=O)N1CCOCC1 (stereo partly shown) [Analog 37],23%,–,–,–,–
C[C@@H]1CC[C@]2(C)CC[C@]3(C)C(=CC(=O)C4[C@@]5(C)CC[C@@H](O)[C@](C)(C(=O)N6CCN(CCO)CC6)C5CC[C@]43C)C2[C@H]1C (stereo partly shown) [Analog 38],20%,2.73%,–,–,–
CC(=O)O[C@@H]1CC[C@@]2(C)C(CC[C@]3(C)C2C(=O)C=C2C4[C@@H](C)[C@H](C)CC[C@]4(C)CC[C@]23C)[C@@]1(C)C(=O)N1CCN(CCO)CC1 (stereo partly shown) [Analog 39],–,–,32.11%,48.69%,–
CC(=O)O[C@@H]1CC[C@@]2(C)C(CC[C@]3(C)C2C(=O)C=C2C4[C@@H](C)[C@H](C)CC[C@]4(C)CC[C@]23C)[C@@]1(C)C(=O)n1ccnc1 (stereo partly shown) [Analog 40],31%,2.7%,18.40%,40.47%,–
CC(=O)O[C@@H]1CC[C@@]2(C)C(CC[C@]3(C)C2C(=O)C=C2C4[C@@H](C)[C@H](C)CC[C@]4(C)CC[C@]23C)[C@@]1(C)C(=O)NC1Cc2ccccc2C1 (stereo partly shown) [Analog 41],23%,3.74%,–,–,–
CC(=O)O[C@@H]1CC[C@@]2(C)C(CC[C@]3(C)C2C(=O)C=C2C4[C@@H](C)[C@H](C)CC[C@]4(C)CC[C@]23C)[C@@]1(C)C(=O)Nc1ccccc1 (stereo partly shown) [Analog 42],6%,2.33%,–,–,–
CNC(=O)[C@]1(C)C2CC[C@]3(C)C(C(=O)C=C4C5[C@@H](C)[C@H](C)CC[C@]5(C)CC[C@]43C)[C@@]2(C)CC[C@H]1OC(C)=O (stereo partly shown) [Analog 43],47.8%,12.6%,14.57%,30.90%,–
CC(=O)O[C@@H]1CC[C@@]2(C)C(CC[C@]3(C)C2C(=O)C=C2C4[C@@H](C)[C@H](C)CC[C@]4(C)CC[C@]23C)[C@@]1(C)C(=O)Nc1ccccc1Br (stereo partly shown) [Analog 44],–,–,19.88%,30.02%,IC50 (MDA-MB-231; Table 4): 28.6 µg/mL; IC50 (MCF-7; Table 4): 24.1 µg/mL
CC(=O)O[C@@H]1CC[C@@]2(C)C(CC[C@]3(C)C2C(=O)C=C2C4[C@@H](C)[C@H](C)CC[C@]4(C)CC[C@]23C)[C@@]1(C)C(=O)N(C)CCO (stereo partly shown) [Analog 45],–,–,–,–,IC50 (MDA-MB-231; Table 4): 12 µg/mL; IC50 (MCF-7; Table 4): 11.9 µg/mL
CC(=O)O[C@@H]1CC[C@@]2(C)C(CC[C@]3(C)C2C(=O)C=C2C4[C@@H](C)[C@H](C)CC[C@]4(C)CC[C@]23C)[C@@]1(C)C(=O)Nc1ccc(O)cc1 (stereo partly shown) [Analog 46],–,39%,19.01%,30.56%,–
CC(=O)O[C@@H]1CC[C@@]2(C)C(CC[C@]3(C)C2C(=O)C=C2C4[C@@H](C)[C@H](C)CC[C@]4(C)CC[C@]23C)[C@@]1(C)C(=O)NNc1ccccc1 (stereo partly shown) [Analog 47],39%,10%,35.94%,54.10%,–
CC(=O)O[C@@H]1CC[C@@]2(C)C(CC[C@]3(C)C2C(=O)C=C2C4[C@@H](C)[C@H](C)CC[C@]4(C)CC[C@]23C)[C@@]1(C)C(=O)NCCN(CCO)CCO (stereo partly shown) [Analog 49],–,–,31.55%,47.02%,"Percentage Inhibition of cell proliferation MDA-MB-231 (MDA-MB-231; Table 4, 10 μg/ml): 21.4 at 10 μg/ml %; Percentage Inhibition of cell proliferation MCF-7 (MCF-7; Table 4, 10 μg/ml): 40.9% at 10 ug/ml"
CC(=O)O[C@@H]1CC[C@@]2(C)C(CC[C@]3(C)C2CC=C2C4[C@@H](C)[C@H](C)CC[C@]4(C)CC[C@]23C)[C@@]1(C)C(=O)NCCN (stereo partly shown) [Analog 51],–,–,–,–,IC50 values MDA-MB-231 (MDA-MB-231; Table 4): IC50 at 10.5 μg/ml; IC50 values MCF-7 (MCF-7; Table 4): IC50 at 9.27 μg/ml
CC(=O)O[C@@H]1CC[C@@]2(C)C(CC[C@]3(C)C2CC=C2C4[C@@H](C)[C@H](C)CC[C@]4(C)CC[C@]23C)[C@@]1(C)C(=O)N1CCNCC1 (stereo partly shown) [Analog 54],–,–,35.69%,64.24%,–
COC(=O)CCC(NC(=O)[C@]1(C)C2CC[C@]3(C)C(C(=O)C=C4C5[C@@H](C)[C@H](C)CC[C@]5(C)CC[C@]43C)[C@@]2(C)CC[C@H]1OC(C)=O)C(=O)OC (stereo partly shown) [Analog 56],47%,20%,–,–,–
C[C@@H]1CC[C@]2(C)CC[C@]3(C)C(=CC(Cl)=C4[C@@]5(C)CC[C@@H](O)[C@](C)(C(=O)O)C5CC[C@]43C)C2[C@H]1C (stereo partly shown) [Analog 59],–,–,21.46%,39.24%,–
CC(=O)O[C@@H]1CC[C@]2(C)C3=C(Cl)C=C4C5[C@@H](C)[C@H](C)CC[C@]5(C)CC[C@@]4(C)[C@]3(C)CCC2[C@@]1(C)C(=O)NCCN (stereo partly shown) [Analog 61],–,41%,–,–,IC50 (MDA-MB-231; Table 4): 8.55 µg/mL
CC(=O)O[C@@H]1CC[C@]2(C)C3=C(Cl)C=C4C5[C@@H](C)[C@H](C)CC[C@]5(C)CC[C@@]4(C)[C@]3(C)CCC2[C@@]1(C)C(=O)NN (stereo partly shown) [Analog 62],–,–,36.26%,–,–
CC(=O)O[C@@H]1CC[C@]2(C)C3=C(Cl)C=C4C5[C@@H](C)[C@H](C)CC[C@]5(C)CC[C@@]4(C)[C@]3(C)CCC2[C@@]1(C)C(=O)N1CCNCC1 (stereo partly shown) [Analog 63],–,–,36.20%,57.86%,–
